Results taken from PMC6692079 (Journal of medicinal chemistry, 2018).
“Also recorded” adds a separate entry of the source. Counter-ions that a name gives are not always drawn. Like-named read-outs stand apart in the source and are kept apart here. Blank lines part the entries; values can stand above or below the compound they belong to.

Key:
[1] = biological target: T1, human κ opioid receptor (Homo sapiens, UniProt P41145); experiment: biochemical; format: biochemical; conditions: for δ/κ: selectivity for κ relative to δ
[2] = biological target: T2, human δ opioid receptor (Homo sapiens, UniProt P41143); experiment: biochemical
[3] = biological target: T1, human κ opioid receptor; conditions: cloned human receptor, cited from earlier work
[4] = biological target: T2, human δ opioid receptor; conditions: cloned human receptor, cited from earlier work
[5] = biological target: T3, human μ opioid receptor (Homo sapiens, UniProt P35372); experiment: biochemical
[6] = Pharmacokinetics in plasma and brain after a single sc dose; format: in vivo, Male Sprague—Dawley rats; conditions: 5 mg/kg sc
[7] = biological target: T3, human μ opioid receptor; conditions: cloned human receptor; cited from earlier work
[8] = 5 mg/kg in male rats, cited from earlier work

T1 sequence (P41145 whole entry): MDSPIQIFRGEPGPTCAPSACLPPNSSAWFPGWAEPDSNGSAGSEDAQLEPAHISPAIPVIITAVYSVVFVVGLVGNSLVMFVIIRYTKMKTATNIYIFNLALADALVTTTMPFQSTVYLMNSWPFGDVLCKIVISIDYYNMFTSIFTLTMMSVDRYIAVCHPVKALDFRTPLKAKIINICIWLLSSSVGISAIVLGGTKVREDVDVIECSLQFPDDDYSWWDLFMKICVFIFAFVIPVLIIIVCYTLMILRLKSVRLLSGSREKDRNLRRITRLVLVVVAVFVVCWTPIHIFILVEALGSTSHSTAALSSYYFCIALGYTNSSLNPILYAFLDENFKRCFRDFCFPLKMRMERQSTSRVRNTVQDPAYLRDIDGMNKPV
T2 sequence (P41143 whole entry): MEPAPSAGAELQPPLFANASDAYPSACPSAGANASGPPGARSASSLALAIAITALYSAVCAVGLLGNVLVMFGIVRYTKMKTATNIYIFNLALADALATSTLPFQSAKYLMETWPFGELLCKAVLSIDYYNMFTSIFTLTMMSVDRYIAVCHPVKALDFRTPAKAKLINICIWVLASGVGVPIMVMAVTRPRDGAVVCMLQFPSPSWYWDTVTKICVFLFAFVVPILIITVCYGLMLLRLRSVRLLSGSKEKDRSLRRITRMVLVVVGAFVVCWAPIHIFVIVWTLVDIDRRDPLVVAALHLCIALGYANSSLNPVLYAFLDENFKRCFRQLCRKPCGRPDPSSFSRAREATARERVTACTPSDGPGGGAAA
T3 sequence (P35372 whole entry): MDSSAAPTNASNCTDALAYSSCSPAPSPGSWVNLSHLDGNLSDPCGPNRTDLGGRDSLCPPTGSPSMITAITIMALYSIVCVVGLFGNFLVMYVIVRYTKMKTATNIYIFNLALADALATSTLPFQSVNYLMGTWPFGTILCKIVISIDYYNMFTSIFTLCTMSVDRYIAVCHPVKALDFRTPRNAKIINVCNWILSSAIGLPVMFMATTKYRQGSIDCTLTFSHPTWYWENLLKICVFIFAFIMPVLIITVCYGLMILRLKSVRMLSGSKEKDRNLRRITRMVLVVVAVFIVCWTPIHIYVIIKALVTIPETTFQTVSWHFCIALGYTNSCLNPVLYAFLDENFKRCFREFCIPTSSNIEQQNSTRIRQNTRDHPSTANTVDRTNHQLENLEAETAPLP

SMILES: CC(C)[C@@H](CN1CCCCC1C)NC(=O)[C@H]1Cc2ccc(O)cc2CN1 (mixture of isomers) [Compound 14, (3R)-7-Hydroxy-N-{(1S)-2-methyl-1-[((2RS)-2-methylpiperidin-1-yl)methyl]propyl}−1,2,3,4-tetrahydroisoquinoline-3-carboxamide Dihydrochloride]
δ/κ ([1]; ratio of Ke values): >199
Kb [2]: > 3 µM

SMILES: CC(C)[C@@H](CN1CCCCC1)NC(=O)[C@H]1Cc2ccc(O)cc2CN1 [Compound 1, (3R)‑7-Hydroxy‑N‑[(1S)‑2-methyl-1-(piperidin-1-ylmethyl)propyl]-1,2,3,4-tetrahydroisoquinoline-3-carboxamide]
Ke κ, U69,593 ([3]; previously reported): 6.80 ± 2.1 nM
Ke δ, DPDPE ([4]; previously reported): >3000 nM

Kb [2]: > 3 µM
SMILES: CC(C)[C@@H](CN1CCOCC1)NC(=O)[C@H]1Cc2ccc(O)cc2CN1 [Compound 6, (3R)-7-Hydroxy-N-[(1S)-2-methyl-1-(morpholin-4-ylmethyl)-propyl]-1,2,3,4-tetrahydroisoquinoline-3-carboxamide Dihydrochloride]

SMILES: CC(C)[C@@H](CN1CCN(C)CC1)NC(=O)[C@H]1Cc2ccc(O)cc2CN1 [Compound 7, (3R)-7-Hydroxy-N-{(1S)-2-methyl-1-[(4-methylpiperizin-1-yl)-methyl]propyl}−1,2,3,4-tetrahydroisoquinoline-3-carboxamide Trihydrochloride]
δ/κ ([1]; ratio of Ke values): >30
Kb [2]: > 3 µM

SMILES: CCN(CC)C[C@@H](NC(=O)[C@H]1Cc2ccc(O)cc2CN1)C(C)C [Compound 8, (3R)-N-{(1S)-1-[(4,4-Diethylamino)methyl]-2-methylpropyl]-7-hydroxy-1,2,3,4-tetrahydroisoquinoline-3-carboxamide Dihydrochloride]
Kb [1]: 0.0418 ± 0.012 µM
δ/κ ([1]; ratio of Ke values): >72
Kb [5]: 0.69 ± 0.11 µM
Kb [2]: > 3 µM

Kb [2]: > 3 µM
SMILES: CC(C)CN(CC(C)C)C[C@@H](NC(=O)[C@H]1Cc2ccc(O)cc2CN1)C(C)C [Compound 10, (3R)-N-{(1S)-1-{[Bis(2-methylpropyl)amino]methyl}−2-methyl-propyl]-7-hydroxy-1,2,3,4-tetrahydroisoquinoline-3-carboxamide Dihydrochloride]

SMILES: CC1CCN(C[C@@H](NC(=O)[C@H]2Cc3ccc(O)cc3CN2)C(C)C)CC1 [Compound 12, (3R)-7-Hydroxy-N-{(1S)-2-methyl-1-[(4-methylpiperidin-1-yl)-methyl]propyl}−1,2,3,4-tetrahydroisoquinoline-3-carboxamide Dihydrochloride]
Kb [2]: > 3 µM
persistence in plasma and brain post dose ([6]; last sampling time): 168 h
clearance ([6]; plasma): 43.75 mL/min/kg
brain penetration ([6]; rats, 5 mg/kg): does indeed penetrate the brain; also recorded: crossed the blood—brain barrier; also recorded: did indeed readily penetrate the brain

Kb [1]: 0.00357 ± 0.0015 µM
SMILES: CC(C)[C@@H](CN1CCC(C)(C)CC1)NC(=O)[C@H]1Cc2ccc(O)cc2CN1 [Compound 18, (3R)-N-{(1S)-1-[(4,4-Dimethylpiperidin-1-yl)methyl]-2-methylpropyl}−7-hydroxy-1,2,3,4-tetrahydroisoquinoline-3-carboxamide Dihydrochloride]

SMILES: CC(C)[C@@H](CN1CCC(C(F)(F)F)CC1)NC(=O)[C@H]1Cc2ccc(O)cc2CN1 [Compound 20, (3R)-7-Hydroxy-N-[(1S)-2-methyl-1-{[4-(trifluoromethyl)-piperidin-1-yl]methyl}propyl]-1,2,3,4-tetrahydroisoquinoline-3-carboxamide Dihydrochloride]
δ/κ ([1]; ratio of Ke values): >640
Kb [2]: > 3 µM

SMILES: COC1CCN(C[C@@H](NC(=O)[C@H]2Cc3ccc(O)cc3CN2)C(C)C)CC1 [Compound 22, (3R)-7-Hydroxy-N-{(1S)-2-methyl-1-[(4-methoxypiperidin-1-yl)-methyl]propyl}−1,2,3,4-tetrahydroisoquinoline-3-carboxamide Dihydrochloride]
δ/κ ([1]; ratio of Ke values): >459
Kb [2]: > 3 µM

SMILES: CC(C)[C@@H](CN1CCC(N(C)C)CC1)NC(=O)[C@H]1Cc2ccc(O)cc2CN1 [Compound 23, (3R)-N-[(1S)-1-{[4-(Dimethylamino)piperidin-1-yl]methyl}−2-methylpropyl]-7-hydroxy-1,2,3,4-tetrahydroisoquinoline-3-carboxamide Trihydrochloride]
δ/κ ([1]; ratio of Ke values): >371
Kb [2]: > 3 µM

SMILES: CC(C)[C@@H](CN1CCC(F)(F)CC1)NC(=O)[C@H]1Cc2ccc(O)cc2CN1 [Compound 24, (3R)-N-{[(1S)-1-[4,4-Difluoropiperidin-1-yl]methyl]-2-methyl-propyl}−7-hydroxy-1,2,3,4-tetrahydroisoquinoline-3-carboxamide Dihydrochloride]
δ/κ ([1]; ratio of Ke values): >254
Kb [2]: > 3 µM

SMILES: CC(C)[C@@H](CN1CCC(C#N)CC1)NC(=O)[C@H]1Cc2ccc(O)cc2CN1 [Compound 25, (3R)-N-{(1S)-1-[(4-Cyanopiperidin-1-yl)methyl]-2-methylprolyl}−7-hydroxy-1,2,3,4-tetrahydroisoquinoline-3-carboxamide Dihydrochloride]
δ/κ ([1]; ratio of Ke values): >236
Kb [2]: > 3 µM

SMILES: CC(C)[C@@H](CN1CCC(C(N)=O)CC1)NC(=O)[C@H]1Cc2ccc(O)cc2CN1 [Compound 26]
δ/κ ([1]; ratio of Ke values): >932
Kb [2]: > 3 µM

SMILES: CC1CCN(C[C@@H](NC(=O)[C@H](N)Cc2ccc(O)cc2)C(C)C)CC1 [Compound 36, N-{(1S)-2-Methyl-1-[(4-methylpiperidin-1-yl)methyl]propyl}-D-ty-rosinamide Dihydrochloride]
Kb [1]: 0.387 ± 0.089 µM
fold loss in κ opioid receptor antagonist potency relative to 12 [1]: over 1000
δ/κ ([1]; ratio of Ke values): >8
μ/κ ([1]; ratio of Ke values, selectivity for κ relative to μ): >8
Kb [5]: > 3 µM
Kb [2]: > 3 µM

SMILES: CC(C)[C@@H](CN1CC[C@@](C)(c2cccc(O)c2)[C@@H](C)C1)NC(=O)[C@H]1Cc2ccc(O)cc2CN1C [Compound 46, reference compound]
Ke κ, U69,593 [3]: 0.16 ± 0.06 nM
Ke μ, DAMGO [7]: 210 ± 60 nM
Ke δ, DPDPE [4]: 491 ± 120 nM

SMILES: CC(C)[C@@H](CN1CC[C@@](C)(c2cccc(O)c2)[C@@H](C)C1)NC(=O)[C@H]1Cc2ccc(O)cc2CN1 [JDTic, (3R)-1,2,3,4-tetrahydro-7-hydroxy-N-[(1S)-1-[[(3R,4R)-4-(3-hydroxy-phenyl)-3,4-dimethyl-1-piperidinyl]methyl]-2-methylpropyl]-3-iso-quinolinecarboxamide]
half-life ([8]; brain): 51.8 h
half-life ([8]; plasma): 28.4 h
